Patent publication US10285989B2, “Pyrimidinone amide compounds as PDE2 inhibitors” (Merck Sharp & Dohme Corp., priority 2015, dated 2019)
Read-outs that look alike come from different tables or passages of the source.

Columns and labels:
P-glycoprotein (P-gp) = P-glycoprotein (P-gp) (Homo sapiens (Human), UniProt P08183); experiment: P-gp transport, experimental BA/AB ratio, human; type: in vitro ADME; conditions: LLC-PK1, 1 μM substrate concentration
Excerpt: (§1) See Doan et al. “Passive permeability and P-glycoprotein-mediated efflux differentiate central nervous system (CNS) and non-CNS marketed drugs”, J. Pharm. Exper. […] Desirable human BA/AB ratio is less than 2.0. […] See, for example, Desai, et al. Integration of in Silico and in Vitro Tools for Scaffold Optimization during Drug Discovery: Predicting P-glycoprotein Efflux” Mol. Pharmac.

[1] = molecular target: P-glycoprotein (P-gp, rat Mdr1a) (Rattus norvegicus, UniProt Q6PSM0); experiment: P-gp transport, experimental BA/AB ratio, rat LLC-Mdr1a; type: in vitro ADME; conditions: LLC-PK1; rat LLC-Mdrla; 1 μM substrate concentration
Excerpt: as §1

human PDE2A1 = human PDE2A1 (Homo sapiens (Human), UniProt O00408); experiment: PDE2 IMAP FP inhibition assay, human PDE2A1 (selectivity panel format); type: biochemical
How it was run: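 IMAP fluorescence polarization assay; substrate 50 nM FAM-cAMP with 1000 nM cGMP, enzyme at ~20% conversion, in 10 mM Tris pH 7.2, 10 mM MgCl2, 1 mM DTT, 0.01% Tween-20. 60 min room temperature, stopped with IMAP binding reagent, 1 h, then parallel/perpendicular fluorescence read.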

Rhesus PDE2A3 = Rhesus PDE2A3 (Macaca mulatta, UniProt B3VTJ2); experiment: PDE2 fluorescence polarization (IMAP FP) inhibition assay, rhesus PDE2A3; type: biochemical, rhesus macaque
[2] = Lab A, read-out: Human PDE2 Ki (nM) - Lab A
[3] = Lab B, read-out: Human PDE2 Ki (nM) - Lab B
[4] = Lab A, read-out: Rhesus PDE2 Ki (nM) - Lab A
[5] = Lab B, read-out: Rhesus PDE2 Ki (nM) - Lab B

Sequence of Rhesus PDE2A3 (B3VTJ2 1-941): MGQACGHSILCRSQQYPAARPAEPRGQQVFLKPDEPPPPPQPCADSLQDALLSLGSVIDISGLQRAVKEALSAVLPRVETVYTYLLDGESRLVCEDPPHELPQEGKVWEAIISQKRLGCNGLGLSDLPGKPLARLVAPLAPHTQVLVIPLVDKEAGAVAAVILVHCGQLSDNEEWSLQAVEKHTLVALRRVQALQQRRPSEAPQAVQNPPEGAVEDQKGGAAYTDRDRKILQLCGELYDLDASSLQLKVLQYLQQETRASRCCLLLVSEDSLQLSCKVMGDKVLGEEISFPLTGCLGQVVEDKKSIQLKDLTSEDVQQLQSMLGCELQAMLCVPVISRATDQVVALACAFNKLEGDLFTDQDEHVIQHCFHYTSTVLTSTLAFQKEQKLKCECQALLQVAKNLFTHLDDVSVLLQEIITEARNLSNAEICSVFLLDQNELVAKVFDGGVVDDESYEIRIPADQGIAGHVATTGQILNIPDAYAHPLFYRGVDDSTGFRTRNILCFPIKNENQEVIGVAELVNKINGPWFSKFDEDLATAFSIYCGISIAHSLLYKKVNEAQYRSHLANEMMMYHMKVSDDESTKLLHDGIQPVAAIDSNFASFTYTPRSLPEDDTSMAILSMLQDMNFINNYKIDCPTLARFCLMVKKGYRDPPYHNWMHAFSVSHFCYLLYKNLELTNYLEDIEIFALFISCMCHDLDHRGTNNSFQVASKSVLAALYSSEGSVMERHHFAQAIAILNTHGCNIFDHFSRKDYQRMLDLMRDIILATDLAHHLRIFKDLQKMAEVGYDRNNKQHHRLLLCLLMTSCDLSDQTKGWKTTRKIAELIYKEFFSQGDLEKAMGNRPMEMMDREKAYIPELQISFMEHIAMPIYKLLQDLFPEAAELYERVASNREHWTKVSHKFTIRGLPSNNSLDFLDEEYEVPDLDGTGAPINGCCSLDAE
Sequence of human PDE2A1 (O00408 other isoform, or with tags, fused parts or gaps): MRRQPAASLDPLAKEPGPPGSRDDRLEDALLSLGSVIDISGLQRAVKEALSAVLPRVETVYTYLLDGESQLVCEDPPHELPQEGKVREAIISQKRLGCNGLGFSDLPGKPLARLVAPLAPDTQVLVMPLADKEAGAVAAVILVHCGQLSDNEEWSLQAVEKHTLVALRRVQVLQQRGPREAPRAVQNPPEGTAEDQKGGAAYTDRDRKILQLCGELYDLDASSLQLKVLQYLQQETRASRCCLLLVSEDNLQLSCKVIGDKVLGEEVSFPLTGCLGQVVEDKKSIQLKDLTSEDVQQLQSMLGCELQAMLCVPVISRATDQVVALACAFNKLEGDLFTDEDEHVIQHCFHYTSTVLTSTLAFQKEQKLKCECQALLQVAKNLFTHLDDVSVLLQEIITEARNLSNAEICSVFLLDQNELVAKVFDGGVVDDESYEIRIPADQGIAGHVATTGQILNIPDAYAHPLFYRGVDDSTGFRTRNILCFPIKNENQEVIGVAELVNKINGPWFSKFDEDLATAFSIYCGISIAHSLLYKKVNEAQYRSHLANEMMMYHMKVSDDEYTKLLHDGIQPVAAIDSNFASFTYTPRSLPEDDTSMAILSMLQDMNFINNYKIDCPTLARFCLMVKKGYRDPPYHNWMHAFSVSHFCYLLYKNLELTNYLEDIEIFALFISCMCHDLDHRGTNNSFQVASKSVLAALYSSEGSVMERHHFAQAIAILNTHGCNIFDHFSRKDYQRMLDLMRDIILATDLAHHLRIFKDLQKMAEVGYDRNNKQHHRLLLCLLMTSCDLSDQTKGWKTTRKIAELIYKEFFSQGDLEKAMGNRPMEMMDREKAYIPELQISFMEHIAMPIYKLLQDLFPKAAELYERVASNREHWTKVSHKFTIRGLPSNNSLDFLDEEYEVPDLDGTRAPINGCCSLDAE
Sequence of P-glycoprotein (P-gp, rat Mdr1a) (Q6PSM0 1-1272): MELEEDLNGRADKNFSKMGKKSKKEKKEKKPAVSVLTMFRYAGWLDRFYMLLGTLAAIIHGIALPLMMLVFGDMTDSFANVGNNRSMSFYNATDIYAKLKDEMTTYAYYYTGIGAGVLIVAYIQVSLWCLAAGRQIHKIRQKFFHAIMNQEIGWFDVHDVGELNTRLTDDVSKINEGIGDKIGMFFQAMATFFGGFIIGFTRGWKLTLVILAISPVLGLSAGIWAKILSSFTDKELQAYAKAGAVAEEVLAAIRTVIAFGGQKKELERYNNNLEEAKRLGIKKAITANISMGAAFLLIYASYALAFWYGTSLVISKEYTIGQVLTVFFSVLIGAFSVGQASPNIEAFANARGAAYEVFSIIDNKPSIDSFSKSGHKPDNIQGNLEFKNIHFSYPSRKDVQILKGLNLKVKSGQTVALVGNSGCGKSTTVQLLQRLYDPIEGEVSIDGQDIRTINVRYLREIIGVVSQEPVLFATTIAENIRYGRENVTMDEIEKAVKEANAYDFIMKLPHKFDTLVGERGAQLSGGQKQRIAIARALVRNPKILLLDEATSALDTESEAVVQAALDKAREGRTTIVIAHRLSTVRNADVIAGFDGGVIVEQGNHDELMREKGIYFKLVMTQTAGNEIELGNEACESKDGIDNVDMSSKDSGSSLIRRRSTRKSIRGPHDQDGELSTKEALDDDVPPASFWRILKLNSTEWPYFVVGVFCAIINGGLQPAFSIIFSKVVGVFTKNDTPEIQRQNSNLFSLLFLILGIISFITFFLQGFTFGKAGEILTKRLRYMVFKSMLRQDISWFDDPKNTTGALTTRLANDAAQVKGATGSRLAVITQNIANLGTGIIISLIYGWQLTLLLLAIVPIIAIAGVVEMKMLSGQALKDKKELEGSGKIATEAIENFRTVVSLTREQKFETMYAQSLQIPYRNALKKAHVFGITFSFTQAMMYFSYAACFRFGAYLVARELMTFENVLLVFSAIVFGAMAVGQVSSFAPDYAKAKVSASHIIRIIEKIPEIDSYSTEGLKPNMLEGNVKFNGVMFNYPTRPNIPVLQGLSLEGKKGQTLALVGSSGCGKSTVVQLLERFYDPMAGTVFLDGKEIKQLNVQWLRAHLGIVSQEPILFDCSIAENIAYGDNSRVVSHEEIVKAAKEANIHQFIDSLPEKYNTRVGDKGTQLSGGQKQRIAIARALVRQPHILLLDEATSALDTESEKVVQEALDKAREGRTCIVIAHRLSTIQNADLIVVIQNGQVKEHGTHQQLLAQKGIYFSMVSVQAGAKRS
Sequence of P-glycoprotein (P-gp) (P08183 whole entry): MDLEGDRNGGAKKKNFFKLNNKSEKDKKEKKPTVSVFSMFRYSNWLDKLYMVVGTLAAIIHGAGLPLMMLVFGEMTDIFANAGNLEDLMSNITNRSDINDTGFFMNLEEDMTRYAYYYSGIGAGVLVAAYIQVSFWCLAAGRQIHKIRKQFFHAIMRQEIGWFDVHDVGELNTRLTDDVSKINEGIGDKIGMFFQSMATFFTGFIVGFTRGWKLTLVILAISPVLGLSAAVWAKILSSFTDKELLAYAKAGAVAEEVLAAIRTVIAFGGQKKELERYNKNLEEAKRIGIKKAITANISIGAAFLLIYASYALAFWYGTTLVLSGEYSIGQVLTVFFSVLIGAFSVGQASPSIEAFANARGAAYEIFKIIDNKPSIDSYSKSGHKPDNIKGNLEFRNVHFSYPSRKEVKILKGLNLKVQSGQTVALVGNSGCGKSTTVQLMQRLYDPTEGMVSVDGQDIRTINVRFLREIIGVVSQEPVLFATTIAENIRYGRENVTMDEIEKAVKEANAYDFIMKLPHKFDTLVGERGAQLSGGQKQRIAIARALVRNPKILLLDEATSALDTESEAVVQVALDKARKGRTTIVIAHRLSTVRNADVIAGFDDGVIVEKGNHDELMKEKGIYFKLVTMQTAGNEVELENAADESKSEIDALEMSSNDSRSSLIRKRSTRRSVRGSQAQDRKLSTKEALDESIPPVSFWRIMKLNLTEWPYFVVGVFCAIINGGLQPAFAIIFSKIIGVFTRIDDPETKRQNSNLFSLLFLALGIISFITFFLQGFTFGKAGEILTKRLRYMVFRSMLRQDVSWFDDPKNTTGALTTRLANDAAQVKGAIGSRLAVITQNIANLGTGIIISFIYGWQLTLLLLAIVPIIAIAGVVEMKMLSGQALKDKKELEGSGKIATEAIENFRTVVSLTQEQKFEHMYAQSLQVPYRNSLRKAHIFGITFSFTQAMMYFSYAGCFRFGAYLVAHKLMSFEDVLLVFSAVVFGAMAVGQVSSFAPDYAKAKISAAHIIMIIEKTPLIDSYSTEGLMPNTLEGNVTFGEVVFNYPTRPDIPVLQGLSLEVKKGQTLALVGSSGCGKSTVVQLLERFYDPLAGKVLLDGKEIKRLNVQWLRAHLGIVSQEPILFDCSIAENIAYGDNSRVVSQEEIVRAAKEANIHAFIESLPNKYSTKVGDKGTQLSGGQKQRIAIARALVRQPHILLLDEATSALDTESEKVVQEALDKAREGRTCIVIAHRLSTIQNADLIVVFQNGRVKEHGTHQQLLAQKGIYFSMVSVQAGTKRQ

Row | SMILES | efflux ratio at 1 μM (P-glycoprotein (P-gp)) | efflux ratio at 1 μM [1] | Ki (human PDE2A1; [2]) [nM] | Ki (human PDE2A1; [3]) [nM] | Ki (Rhesus PDE2A3; [4]) [nM] | Ki (Rhesus PDE2A3; [5]) [nM]
1 | C[C@@H](NC(=O)c1cc(=O)[nH]c(N(C)C)n1)c1ccc(C(F)(F)F)cc1 [Example 133, 2-(dimethylamino)-6-oxo-N-{(1R)-1-[4-(trifluoromethyl)phenyl]ethyl}-1,6-dihydropyrimidine-4-carboxamide] | 0.5 | 1.8 | 2 | 2.3 | 2.5 | 2.8
2 | CNc1nc(C(=O)N[C@H](C)c2ccc(C(F)(F)F)cc2)cc(=O)[nH]1 [Example 135, 2-(methylamino)-6-oxo-N-{(1R)-1-[4-(trifluoromethyl)phenyl]ethyl}-1,6-dihydropyrimidine-4-carboxamide] | 2.7 | 11.4 | 27 | – | 36 | –
3 | C[C@@H](NC(=O)c1cc(=O)[nH]c(NC2CCC2)n1)c1ccc(C(F)(F)F)cc1 [Example 138, 2-(cyclobutylamino)-6-oxo-N-{(1R)-1-[4-(trifluoromethyl)phenyl]ethyl}-1,6-dihydropyrimidine-4-carboxamide] | 1.2 | 29.8 | 38 | – | 67 | –
4 | C[C@@H](NC(=O)c1cc(=O)[nH]c(N(C)C)n1)c1ccc(SC(F)(F)F)cc1 [Example 143, 2-(dimethylamino)-6-oxo-N-[(1R)-1-{4-[(trifluoromethyl)sulfanyl]phenyl}ethyl]-1,6-dihydropyrimidine-4-carboxamide] | 0.5 | 2.5 | 0.32 | 0.82 | 0.57 | 0.61
5 | CNc1nc(C(=O)N[C@H](C)c2ccc(SC(F)(F)F)cc2)cc(=O)[nH]1 [Example 144, 2-(methylamino)-6-oxo-N-[(1R)-1-{4-[(trifluoromethyl)sulfanyl]phenyl}ethyl]-1,6-dihydro-pyrimidine-4-carboxamide] | 3.3 | 14.2 | 3.4 | – | 5.7 | –
6 | C[C@@H](NC(=O)c1cc(=O)[nH]c(N)n1)c1ccc(SC(F)(F)F)cc1 [Example 145, 2-amino-6-oxo-N-[(1R)-1-{4-[(trifluoromethyl)sulfanyl]phenyl}ethyl]-1,6-dihydro-pyrimidine-4-carboxamide] | 3.2 | 28.9 | 23 | – | 35 | –
7 | C[C@@H](NC(=O)c1cc(=O)[nH]c(N2CCCC2)n1)c1ccc(SC(F)(F)F)cc1 [Example 146, 6-oxo-2-pyrrolidin-1-yl-N-[(1R)-1-{4-[(trifluoromethyl)sulfanyl]phenyl}ethyl]-1,6-dihydro-pyrimidine-4-carboxamide] | 0.9 | 5.4 | 0.36 | – | 0.43 | –
8 | CNc1nc(C(=O)N[C@@H](c2ccc(OC(F)(F)F)c(F)c2)C(C)C)cc(=O)[nH]1 [Example 151, N-{(1R)-1-[3-fluoro-4-(trifluoromethoxy)phenyl]-2-methylpropyl}-2-(methylamino)-6-oxo-1,6-dihydro-pyrimidine-4-carboxamide] | 6.5 | 18.7 | 2.8 | – | 4.7 | –
9 | CC(C)[C@@H](NC(=O)c1cc(=O)[nH]c(N)n1)c1ccc(OC(F)(F)F)c(F)c1 [Example 152, 2-amino-N-{(1R)-1-[3-fluoro-4-(trifluoromethoxy)phenyl]-2-methylpropyl}-6-oxo-1,6-dihydropyrimidine-4-carboxamide] | 11.6 | 29.2 | 19 | – | 33 | –

Next, values leading:

Row | efflux ratio at 1 μM (P-glycoprotein (P-gp)) | efflux ratio at 1 μM [1] | Ki (human PDE2A1; [2]) [nM] | Ki (human PDE2A1; [3]) [nM] | Ki (Rhesus PDE2A3; [4]) [nM] | Ki (Rhesus PDE2A3; [5]) [nM] | SMILES
10 | 0.7 | 5.9 | – | 0.26 | 0.19 | 0.15 | CC(C)[C@@H](NC(=O)c1cc(=O)[nH]c(N2CCCC2)n1)c1ccc(SC(F)(F)F)cc1 [Example 147, N-[(1R)-2-methyl-1-{4-[(trifluoromethyl)sulfanyl]phenyl}propyl]-6-oxo-2-pyrrolidin-1-yl-1,6-dihydropyrimidine-4-carboxamide]
11 | 1.3 | 9.5 | 0.2 | – | 0.42 | – | CC(C)[C@@H](NC(=O)c1cc(=O)[nH]c(N2CCC2)n1)c1ccc(SC(F)(F)F)cc1 [Example 148, 2-azetidin-1-yl-N-[(1R)-2-methyl-1-{4-[(trifluoromethyl)sulfanyl]phenyl}propyl]-6-oxo-1,6-dihydropyrimidine-4-carboxamide]
12 | 1.1 | 4.4 | – | 0.29 | 0.24 | 0.29 | CC(C)[C@@H](NC(=O)c1cc(=O)[nH]c(N(C)C)n1)c1ccc(SC(F)(F)F)c(F)c1 [Example 150, 2-(dimethylamino)-N-[(1R)-1-{3-fluoro-4-[(trifluoromethyl)sulfanyl]phenyl}-2-methylpropyl]-6-oxo-1,6-dihydropyrimidine-4-carboxamide]
13 | 10.4 | 24.7 | 9.9 | – | 18 | – | CC(C)[C@@H](NC(=O)c1cc(=O)[nH]c(N)n1)c1ccc(SC(F)(F)F)cc1 [Example 154, 2-amino-N-[(1R)-2-methyl-1-{4-[(trifluoromethyl)sulfanyl]phenyl}propyl]-6-oxo-1,6-dihydropyrimidine-4-carboxamide]
14 | 4.2 | 9 | 1.2 | – | 4.3 | – | CNc1nc(C(=O)N[C@@H](c2ccc(SC(F)(F)F)c(F)c2)C(C)C)cc(=O)[nH]1 [Example 155, N-[(1R)-1-{3-fluoro-4-[(trifluoromethyl)sulfanyl]phenyl}-2-methylpropyl]-2-(methylamino)-6-oxo-1,6-dihydropyrimidine-4-carboxamide]
15 | 11.1 | 11.3 | 10 | – | 24 | – | CC(C)[C@@H](NC(=O)c1cc(=O)[nH]c(N)n1)c1ccc(SC(F)(F)F)c(F)c1 [Example 156, 2-amino-N-[(1R)-1-{3-fluoro-4-[(trifluoromethyl)sulfanyl]phenyl}-2-methylpropyl]-6-oxo-1,6-dihydropyrimidine-4-carboxamide]
16 | 17.1 | 28.8 | 1 | – | 1.6 | – | C[C@@H](NC(=O)c1cc(=O)[nH]c(N2Cc3ccncc3C2)n1)c1ccc(C(F)(F)F)cc1 [Example 160, 2-(1,3-dihydro-2H-pyrrolo[3,4-c]pyridin-2-yl)-6-oxo-N-{(1R)-1-[4-(trifluoromethyl)phenyl]ethyl}-1,6-dihydropyrimidine-4-carboxamide]
17 | 14.6 | 23.7 | 5 | – | 5.1 | – | C[C@@H](NC(=O)c1cc(=O)[nH]c(N2Cc3cncnc3C2)n1)c1ccc(C(F)(F)F)cc1 [Example 161, 2-(5,7-dihydro-6H-pyrrolo[3,4-d]pyrimidin-6-yl)-6-oxo-N-{(1R)-1-[4-(trifluoromethyl)phenyl]ethyl}-1,6-dihydropyrimidine-4-carboxamide]
18 | 2.5 | 17.9 | – | 0.61 | 0.51 | – | CC(C)[C@@H](NC(=O)c1cc(=O)[nH]c(N2CC[C@H](F)C2)n1)c1ccc(OC(F)(F)F)c(F)c1 [Example 162, 2-[(3S)-3-fluoropyrrolidin-1-yl]-N-{(1R)-1-[3-fluoro-4-(trifluoromethoxy)phenyl]-2-methylpropyl}-6-oxo-1,6-dihydropyrimidine-4-carboxamide]
19 | 0.7 | 15.8 | – | 4.2 | 4.1 | 5 | CC(C)[C@@H](NC(=O)c1cc(=O)[nH]c(N2CC[C@@H](F)C2)n1)c1ccc(OC(F)(F)F)c(F)c1 [Example 163, 2-[(3R)-3-fluoropyrrolidin-1-yl]-N-{(R)-1-[3-fluoro-4-(trifluoromethoxy)phenyl]-2-methylpropyl}-6-oxo-1,6-dihydropyrimidine-4-carboxamide]
20 | 2.6 | 7.5 | – | 3.9 | 2.4 | 4 | CC(C)[C@@H](NC(=O)c1cc(=O)[nH]c(N2CC(F)C2)n1)c1ccc(OC(F)(F)F)c(F)c1 [Example 164, 2-(3-fluoroazetidin-1-yl)-N-{(1R)-1-[3-fluoro-4-(trifluoromethoxy)phenyl]-2-methylpropyl}-6-oxo-1,6-dihydropyrimidine-4-carboxamide]
21 | 3.6 | 20.1 | – | 0.45 | 0.33 | 0.5 | CC(C)[C@@H](NC(=O)c1cc(=O)[nH]c(N2CC[C@H](F)C2)n1)c1ccc(SC(F)(F)F)c(F)c1 [Example 165, 2-[(3S)-3-fluoropyrrolidin-1-yl]-N-[(1R)-1-{3-fluoro-4-[(trifluoromethyl)sulfanyl]phenyl}-2-methylpropyl]-6-oxo-1,6-dihydropyrimidine-4-carboxamide]
